The text below walks through data of patent US20110256121A1, “METHODS AND KITS FOR DIAGNOSING OR MONITORING AUTOIMMUNE AND CHRONIC INFLAMMATORY DISEASES” (THE REGENTS OF THE UNIVERSITY OF MICHIGAN, priority 2008, published 2011).

Common to all, as to format: cell-based, human
Assay [1] has as its system T cell CD70 expression. The assay is described as follows: CD70 expression on PHA-stimulated T cells by flow cytometry. Particulars: for CD70 expression on treated vs untreated PHA-stimulated T cells: unfractionated T cells, 3 days, dose-response for procainamide, PD98059, U0126. How it is done: Cells and cell culture. Peripheral blood mononuclear cells (PBMCs) were isolated by density-gradient centrifugation. T cells were then isolated by E-rosetting (See, e.g., Golbus et al., Clin Immunol Immunopathol 46, 129 (1988)). […] Where indicated, the cells were cultured in RPMI 1640/10% fetal calf serum (FCS) supplemented with interleukin-2 (IL-2) (See, e.g., Richardson et al., Clin Immunol Immunopathol 55, 368 (1990)), in round-bottomed 5-ml culture tubes (Falcon). Cells were stimulated with 1 μg/ml of PHA (Remel) for 16 hours, then cultured in 24-well plates at a density of 1×10^6 for an additional 72 hours in the presence of 2-deoxy-5-azaC or 5-azaC (Sigma-Aldrich), procainamide (Sigma-Aldrich), hydralazine (Sigma-Aldrich), or the MEK inhibitors U0126 (Promega) or PD98059 (Promega). In other studies, PHA-stimulated PBMCs were cultured in RPMI 1640/10% FCS and treated with indomethacin, chloroquine, hydrocortisone, and 6-mercaptopurine (6-MP) (all from Sigma-Aldrich). TT48E, a cloned, CD4+, tetanus toxoid-reactive human T cell line, was cultured as previously described (Cornacchia et al., J Immunol 140, 2197 (1988); Richardson et al., Arthritis Rheum 35, 647 (1992)).
Flow cytometric analysis. The following fluorochrome-conjugated monoclonal antibodies were obtained from BD PharMingen (San Diego, Calif.): FITC-conjugated anti-human CD70, CD2, or isotype-matched controls; phycoerythrin (PE)-conjugated anti-CD2, CD4, and CD8; and CyChromeconjugated anti-HLA-DR, CD2, and isotype controls. Staining and multicolor flow cytometric analysis were performed (See, e.g., Hale et al., Cell Immunol 220, 51 (2002)) using saturating concentrations of antibody.
The panel of inhibitors used included 5-azaC, an irreversible DNA methyltransferase inhibitor (See, e.g., Glover and Leyland-Jones, Cancer Treat Rep 71, 959 (1987)) procainamide, a competitive DNA methyltransferase inhibitor (See e.g., Scheinbart et al., J Rheumatol 18, 530 (1991)), and the ERK pathway inhibitors PD98059, U0126, and hydralazine.
Studies were performed examining the effects of the DNA methylation inhibitors on CD70 expression in CD4+ and CD8+ T cell subsets.

Assay [2] deals with CD70-dependent B cell help. The assay is described as follows: T cell and B cell costimulation assay with PWM, IgG ELISA. Particulars: 8 days, P<0.05. On the procedure: T cell and B cell costimulation assays. E-rosette-purified T cells were stimulated for 16 hours with PHA and then treated with the indicated chemicals for an additional 72 hours as described above. Where indicated, T cell subsets were isolated by negative selection using magnetic beads (Miltenyi). B cells (1-4×10^5) enriched by negative selection using magnetic beads (Miltenyi) and assessed to be 70-85% pure using PE-conjugated anti-human CD21 (PharMingen), were added to washed, drug-treated autologous T cells, at T cell to B cell ratios of 4:1, 2:1, 1:1, 1:2, and 1:4. Where indicated, 0.625 μg/ml of PWM (Aldrich) was added. The cells were cultured in RPMI 1640/10% FBS/penicillin/streptomycin for 8 days in 96-well roundbottomed plates (Costar) containing a 200 μl total volume (performed in duplicate). Cells were supplemented with 50 μl of medium on day 4. […]
IgG enzyme-linked immunosorbent assays (ELISAs). […] Serial dilutions of purified human IgG (Sigma) were used for quantitation. […] The plates were read at 405 nm using a SpectraMax spectrophotometer (Molecular Devices). […]
Since CD70 participates in T cell-dependent B cell stimulation (See e.g., Kobata et al., Proc Natl Acad Sci USA 92, 11249 (1995)), the effects of DNA methylation inhibitors on CD70-dependent B cell help were examined. […] Eight days later, total IgG in the supernatants was measured by ELISA. […]

For assay [3], the system named is CD70 mRNA. The assay is described as follows: CD70 transcripts by real time RT-PCR in anti-CD3 + anti-CD28 stimulated CD4+ T cells. As to conditions: 5 μm 5-azaC, 50 μm Pca, 20 μm Hyd, 40 μm U0126, 25 μm PD98059, 3 days. On the procedure:
In other studies, T cells were isolated by negative selection using magnetic beads and instructions provided by the manufacturer (Pan T cell Isolation Kit, Miltenyi), and the CD4+ or CD8+ subset was similarly isolated by magnetic cell sorting. Jurkat cells (E6-1) were cultured as previously described (See, e.g., Cornacchia et al., J Immunol 140:2197 (1998)). Purified human CD4+ T cells were first stimulated with plate bound anti-CD3 and soluble anti-CD28. Briefly, 24 well plates were coated with 300 μl of anti-CD3 (10 μg/ml in PBS—SouthernBiotech) 18 hours 4° C., washed, then 2×10^6 purified T cells were added to the wells in 2 ml RPMI 1640/10% FCS containing 2 μg/ml anti-CD28 (SouthernBiotech). The plates were incubated 37° C. in a humidified atmosphere containing 5% CO2 for 18-24 hours, then treated with 5 μm 5-azaC (Aldrich), 50 μm Pca (Sigma), 20 μm Hyd (Aldrich), 40 μm UO126 (Promega) or 25 μm PD98059 (Promega), and cultured for 3 additional days as described (See, e.g., Oelke et al., Arthritis Rheum 50:1850 (2004)).

As to `Nc1ncn([C@@H]2O[C@H](CO)[C@@H](O)[C@H]2O)c(=O)n1` [5-azaC, 5-azacytidine], in assay [1] (1 μM 5-azaC, n=5, P=0.025), the “increase of CD70 MFI on CD4+ T cells” value was 1.53±0.45 fold. For the same compound, in assay [1], the “CD70 expression on CD4+ T cells” value is listed as “increased CD70 expression on CD4+ T cells”. The “5-azaC concentration producing the greatest effect on CD70 expression” value in assay [1] (range of 5-azaC concentrations, n=5) came to 1 µM. Besides, the “CD70 expression on treated vs untreated PHA-stimulated T cells” value in assay [1] (1 μM 5-azaC) is listed as “small increase”. Also, in assay [2], the “IgG secreted by B cells cultured with drug-treated T cells vs untreated T cells” value was “secreted greater amounts of IgG”. In addition, in assay [3], the “CD70 transcripts relative to β-actin, treated vs untreated” value is “increase CD70 transcripts”.
Take `N#CC(=C(/N)Sc1ccccc1N)/C(C#N)=C(\N)Sc1ccccc1N` [U0126]: the “increase of CD70 MFI on CD4+ T cells” value in assay [1] (40 μM U0126, n=4, P=0.039) is on record as 3.20±0.44 fold. Further, in assay [1], the “CD70 expression on CD4+ T cells” value was “increased CD70 expression on CD4+ T cells”. For the same compound, in assay [1] (U0126, P=0.085, stated in the CD8+ context), the “increase of CD70 MFI in T cells treated with U0126 (FIG. 2I)” value stood at 2.83±0.95 fold. In addition, the “CD70 expression on treated vs untreated PHA-stimulated T cells” value in assay [1] (1 μM 5-azaC) is “increase in CD70 expression with treatment”. For the same compound, the “IgG secreted by B cells cultured with drug-treated T cells vs untreated T cells” value in assay [2] is listed as “secreted greater amounts of IgG”. Further, in assay [3], the “CD70 transcripts relative to β-actin, treated vs untreated” value is reported as “increase CD70 transcripts”.
